Laboratory results from ChEMBL document CHEMBL1151517, “Morpholinoalkylindenes as antinociceptive agents: Novel cannabinoid receptor agonists” (Bioorg Med Chem Lett, 1995).

Key:
[1] = target: Cannabinoid receptor (Rattus norvegicus, UniProt Q9QZN9+P20272); experiment: Displacement of 0.5 nM [3H](R)-(+)-WIN-55212-2 from Cannabinoid receptor of rat cerebellar membranes; format: cell membranes, Membrane
[2] = tested on: Mus musculus; experiment: Concentration required for inhibition of electrically stimulated contraction of mouse vas deferens […]; format: functional
[3] = tested on: Mus musculus; experiment: Effective dose required for inhibition of oral acetylcholine (ACh) writhing activity in mice at 100 mg/Kg dose; format: functional
[4] = tested on: Mus musculus; experiment: Effective dose required for inhibition of oral acetylcholine (ACh) writhing activity in mice at 10 mg/Kg dose; format: functional
[5] = target: Cannabinoid receptor (Rattus norvegicus) (UniProt Q9QZN9+P20272); experiment: Inhibition to displace 50% of 0.5 nM [3H](R)-(+)-WIN-55212-2 binding to Cannabinoid receptor in rat cerebellar membranes at 1 uM concentration; format: cell membranes; conditions: Membrane
Sequence of Cannabinoid receptor (Rattus norvegicus) (P20272 whole entry, looked up): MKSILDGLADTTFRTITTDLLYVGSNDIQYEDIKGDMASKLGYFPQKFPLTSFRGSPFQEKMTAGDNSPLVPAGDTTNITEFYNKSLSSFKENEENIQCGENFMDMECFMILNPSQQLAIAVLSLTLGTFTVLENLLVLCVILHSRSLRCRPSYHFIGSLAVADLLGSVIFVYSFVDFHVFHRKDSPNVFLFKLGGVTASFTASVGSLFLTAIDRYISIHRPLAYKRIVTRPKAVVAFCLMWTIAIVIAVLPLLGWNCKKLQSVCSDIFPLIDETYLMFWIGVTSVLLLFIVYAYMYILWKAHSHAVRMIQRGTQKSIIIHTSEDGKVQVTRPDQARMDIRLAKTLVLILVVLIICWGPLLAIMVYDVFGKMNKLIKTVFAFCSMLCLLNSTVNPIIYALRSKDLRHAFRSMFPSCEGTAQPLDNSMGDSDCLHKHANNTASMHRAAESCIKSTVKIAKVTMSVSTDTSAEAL
Sequence of Cannabinoid receptor (Rattus norvegicus) (Q9QZN9 whole entry, looked up): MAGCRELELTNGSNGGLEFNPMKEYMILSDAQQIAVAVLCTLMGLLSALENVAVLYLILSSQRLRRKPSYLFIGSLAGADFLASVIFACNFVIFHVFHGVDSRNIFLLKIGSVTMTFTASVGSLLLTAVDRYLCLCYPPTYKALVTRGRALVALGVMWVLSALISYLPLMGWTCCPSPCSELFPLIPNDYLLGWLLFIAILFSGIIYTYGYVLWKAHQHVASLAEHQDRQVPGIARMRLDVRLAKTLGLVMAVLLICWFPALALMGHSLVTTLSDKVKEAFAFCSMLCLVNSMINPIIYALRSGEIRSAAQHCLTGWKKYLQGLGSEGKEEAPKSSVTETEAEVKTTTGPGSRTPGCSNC

[6] = organism: Mus musculus; experiment: Effective dose required for inhibition of oral acetylcholine (ACh) writhing activity in mice; format: functional
[7] = Compound was tested for inhibitory activity against prostaglandin synthetase in mouse brain microsomes

Row | Compound | IC50 [1] | IC50 [2] | further results
1 | CC1=C(CCN2CCOCC2)c2ccccc2C1=Cc1cccc2ccccc12 | 10 µM | 0.045 µM | –
2 | COc1ccc(C=C2C(C)=C(CCN3CCOCC3)c3ccccc32)cc1 | 45 µM | – | inhibition in vivo at 100 mg/kg [3]: 30%
3 | Oc1ccc(/C=C2\C=C(CCN3CCOCC3)c3ccccc32)c2ccccc12 | 97 µM | – | –
4 | COc1ccc(C=C2C(C)=C(CCN3CCOCC3)c3ccccc32)c2ccccc12 | – | 0.35 µM | inhibition in vivo at 100 mg/kg [3]: 39%
5 | COc1ccc(/C=C2\C=C(CCN3CCOCC3)c3ccccc32)cc1OC | 28 µM | 0.019 µM | –
6 | C1=C(CCN2CCOCC2)c2ccccc2/C1=C/c1cccc2ccccc12 | 1 µM | 0.007 µM | inhibition in vivo at 10 mg/kg [4]: 83%
7 | C[S+]([O-])c1ccc(/C=C2\C=C(CCN3CCOCC3)c3ccccc32)cc1 (centres undefined) | – | 0.19 µM | –
8 | COc1ccc(/C=C2\C=C(CCN3CCOCC3)c3ccccc32)cc1 | 0.058 µM | 0.08 µM | –
9 | C1=C(CCN2CCOCC2)c2ccccc2/C1=C/c1ccccc1 | – | 0.079 µM | inhibition [5]: 33%
10 | COc1ccc(/C=C2\C=C(CCN3CCOCC3)c3ccccc32)c2ccccc12 | 0.9 µM | 0.008 µM | –
11 | CSc1ccc(/C=C2\C=C(CCN3CCOCC3)c3ccccc32)cc1 | 96 µM | – | ED50 [6]: 50 mg/kg
12 | COc1ccc(C(=O)c2c(C)n(CCN3CCOCC3)c3ccccc23)cc1 [PRAVADOLINE] | – | 0.53 µM | IC50 [7]: 3.5 µM; ED50 [6]: 41 mg/kg
